Peptide text beside a SMILES is read from it.
What was measured:
[1] = Elimination from the blood; assay type: in vivo; conditions: no method described
[2] = system: thrombin time; experiment: Thrombin time test; conditions: stated as 'could be caused'; no experiment described
[3] = biological target: T1, fibrinogen (Homo sapiens, UniProt P02671+P02675+P02679); experiment: Equilibrium binding of 125-I D1 Peptide, fibrinogen
T1 construct: purchased Grade L
T1 sequence (P02671 20-644 isoform P02671-2 limits assumed): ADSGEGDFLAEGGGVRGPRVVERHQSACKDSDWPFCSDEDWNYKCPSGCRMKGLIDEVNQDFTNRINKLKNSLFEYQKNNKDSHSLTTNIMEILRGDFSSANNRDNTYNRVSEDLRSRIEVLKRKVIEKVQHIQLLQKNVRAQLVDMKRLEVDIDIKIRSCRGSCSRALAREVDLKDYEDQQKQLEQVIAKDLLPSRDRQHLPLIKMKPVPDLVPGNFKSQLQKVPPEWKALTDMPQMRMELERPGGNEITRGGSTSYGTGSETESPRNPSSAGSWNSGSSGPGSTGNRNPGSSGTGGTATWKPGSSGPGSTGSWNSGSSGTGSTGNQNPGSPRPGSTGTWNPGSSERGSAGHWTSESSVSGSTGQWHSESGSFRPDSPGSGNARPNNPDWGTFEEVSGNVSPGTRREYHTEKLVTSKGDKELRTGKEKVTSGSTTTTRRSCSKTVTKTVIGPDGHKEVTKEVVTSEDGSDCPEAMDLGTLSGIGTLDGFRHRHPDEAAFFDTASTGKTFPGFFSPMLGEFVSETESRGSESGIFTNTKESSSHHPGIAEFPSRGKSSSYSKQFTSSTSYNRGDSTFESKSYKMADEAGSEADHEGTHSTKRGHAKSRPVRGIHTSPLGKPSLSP
T1 sequence (P02675 31-491): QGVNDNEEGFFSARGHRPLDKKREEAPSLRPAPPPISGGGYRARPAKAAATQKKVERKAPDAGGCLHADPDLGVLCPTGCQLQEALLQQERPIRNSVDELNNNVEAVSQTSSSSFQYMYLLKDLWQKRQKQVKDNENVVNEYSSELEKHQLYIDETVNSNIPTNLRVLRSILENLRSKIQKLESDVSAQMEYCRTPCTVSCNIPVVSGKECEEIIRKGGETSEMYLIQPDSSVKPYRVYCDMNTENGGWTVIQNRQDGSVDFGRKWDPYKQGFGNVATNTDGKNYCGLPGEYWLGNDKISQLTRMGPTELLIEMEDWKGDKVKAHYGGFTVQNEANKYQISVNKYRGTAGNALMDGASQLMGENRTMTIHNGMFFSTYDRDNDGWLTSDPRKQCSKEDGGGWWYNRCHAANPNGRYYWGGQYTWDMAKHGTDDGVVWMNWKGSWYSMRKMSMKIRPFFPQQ
T1 sequence (P02679 27-437 isoform P02679-2 limits assumed): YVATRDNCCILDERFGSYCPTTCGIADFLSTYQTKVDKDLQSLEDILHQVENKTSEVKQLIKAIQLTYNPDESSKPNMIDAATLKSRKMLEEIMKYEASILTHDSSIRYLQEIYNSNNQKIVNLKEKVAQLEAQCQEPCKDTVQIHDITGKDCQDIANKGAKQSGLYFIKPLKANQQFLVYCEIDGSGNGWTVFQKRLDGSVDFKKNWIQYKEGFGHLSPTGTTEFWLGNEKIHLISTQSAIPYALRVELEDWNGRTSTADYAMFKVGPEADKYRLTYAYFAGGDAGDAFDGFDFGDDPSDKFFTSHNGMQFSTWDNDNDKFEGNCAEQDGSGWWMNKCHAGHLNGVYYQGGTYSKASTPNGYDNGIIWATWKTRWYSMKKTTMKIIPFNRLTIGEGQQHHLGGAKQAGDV
From the text: Acta 133, 376-379 (1979).

## CC[C@H](C)[C@H](NC(=O)[C@H](CCCCN)NC(=O)[C@H](CCSC)NC(=O)[C@@H](NC(=O)[C@@H](NC(=O)[C@H](CCCCN)NC(=O)[C@H](CCCCN)NC(=O)[C@H](CCSC)NC(=O)[C@H](CO)NC(=O)[C@H](Cc1ccc(O)cc1)NC(=O)[C@H](Cc1c[nH]c2ccccc12)NC(=O)[C@H](CCCNC(=N)N)NC(=O)[C@@H](N)[C@@H](C)O)[C@@H](C)O)[C@@H](C)O)C(=O)N[C@H](C(=O)N1CCC[C@H]1C(=O)N[C@@H](Cc1ccccc1)C(=O)N[C@@H](CC(N)=O)C(=O)N[C@@H](CCCNC(=N)N)C(=O)N[C@@H](CC(C)C)C(=O)N[C@H](C(=O)N[C@H](C(=O)NCC(=O)N[C@@H](CCC(=O)O)C(=O)NCC(=O)N[C@@H](CCC(N)=O)C(=O)N[C@@H](CCC(N)=O)C(=O)N[C@@H](Cc1c[nH]cn1)C(=O)N[C@@H](Cc1c[nH]cn1)C(=O)N[C@@H](CC(C)C)C(=O)NCC(=O)NCC(=O)N[C@@H](C)C(=O)N[C@@H](CCCCN)C(=O)N[C@@H](CCC(N)=O)C(=O)N[C@@H](C)C(=O)NCC(=O)N[C@@H](CC(=O)O)C(=O)N[C@H](C(=O)O)C(C)C)[C@@H](C)CC)[C@@H](C)O)[C@@H](C)CC [D1 Peptide] (H-TRWYSMKKTTMKIIPFNRLTIGEGQQHHLGGAKQAGDV-OH)
[1]
  elimination from the blood: rapidly eliminated
[2]
  blood concentration causing a 50% increase in thrombin time: about 4.4×10^-6 M
[3]
  binding to fibrinogen: no measurable binding

Source: patent US4455290A, “Inhibition of fibrin polymerization by a peptide isolated from fibrin Fragment D1” (Research Corporation, priority 1981, dated 1984)
